Read-outs that look alike come from different tables or passages of the source. Numbered stars: 1 amine (or outer) side, 2 acyl side, 3 side chain; on linkers, the order of the positions; unused ones are H or OH. Square brackets hold non-standard residues; d marks the D form. Side chains are listed from the residue outwards. Peptide text beside a SMILES is read from it. * marks the point of attachment. γGlu = O=C(O)[C@H](CCC(=O)[*:2])N[*:1]; Palmitoyl = CCCCCCCCCCCCCCCC(=O)*; αMeF = C[C@](N)(Cc1ccccc1)C(=O)O; αMeK = C[C@](N)(CCCCN)C(=O)O; Lauroyl = CCCCCCCCCCCC(=O)*; αMeS = C[C@](N)(CO)C(=O)O; AEEA = NCCOCCOCC(=O)O; Aib = CC(C)(N)C(=O)O
Experiments:
Assay type in all cases: cell-based
[1] = molecular target: T1, human glucagon receptor (GCGR) (Homo sapiens, UniProt P47871); assay: cAMP assay, human GCGR cells
T1 construct: expressed in transfected cells
Procedure, shortened: (§1)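 Peptide-stimulated cAMP measured by two-step HTRF after a 30 min room-temperature incubation with receptor-expressing cells (hGLP-1R, hGIPR at 1×10^5 cells/ml; hGCGR at 2×10^5 cells/ml). Duplicate dilutions; EC50 from 4-parameter logistic fit of % Delta F.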

[2] = molecular target: T2, human glucose-dependent insulinotropic peptide receptor (GIPR) (Homo sapiens, UniProt P48546); assay: cAMP assay, human GIPR cells
T2 construct: expressed in transfected cells
T2 sequence (P48546 22-466): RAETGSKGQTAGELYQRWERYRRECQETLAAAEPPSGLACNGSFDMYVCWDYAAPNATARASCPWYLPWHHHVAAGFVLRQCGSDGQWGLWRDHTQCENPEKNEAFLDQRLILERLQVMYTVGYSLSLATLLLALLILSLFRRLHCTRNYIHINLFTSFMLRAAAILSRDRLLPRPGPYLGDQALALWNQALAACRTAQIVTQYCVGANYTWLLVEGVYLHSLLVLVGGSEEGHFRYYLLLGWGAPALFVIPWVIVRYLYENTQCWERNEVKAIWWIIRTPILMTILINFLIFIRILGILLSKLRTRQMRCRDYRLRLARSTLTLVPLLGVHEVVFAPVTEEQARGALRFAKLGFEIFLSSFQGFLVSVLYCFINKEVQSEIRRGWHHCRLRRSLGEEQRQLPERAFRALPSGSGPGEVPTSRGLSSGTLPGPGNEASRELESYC
Procedure, shortened: as §1

[3] = molecular target: T3, human GLP-1 receptor (GLP-1R) (Homo sapiens, UniProt P43220); assay: cAMP assay, human GLP-1R cells
T3 construct: expressed in transfected cells
Procedure, shortened: as §1

[4] = tris-lipidated peptides, first replicate, read-out: Primary assay EC50 Gluc-R (n1)
[5] = tris-lipidated peptides, first replicate, read-out: Primary assay EC50 GIP-R (n1)
[6] = tris-lipidated peptides, mean of n1 and n2, read-out: Primary assay EC50 Mean pM GLP-1R
[7] = tris-lipidated peptides, replicate n1, read-out: Primary assay EC50 GLP-1R n1
[8] = tris-lipidated peptides, replicate n2, read-out: Primary assay EC50 GLP-1R n2
[9] = cAMP assay, first determination (n1), read-out: Primary assay EC50 GLP-1R n1
[10] = cAMP assay, second determination (n2), read-out: Primary assay EC50 GLP-1R n2
[11] = mean of n1 and n2, read-out: Mean pM GLP-1R
[12] = cAMP assay, first determination (n1), read-out: Primary assay EC50 Gluc-R (n1)
[13] = cAMP assay, second determination (n2), read-out: Primary assay EC50 Gluc-R (n2)
[14] = cAMP assay, first determination (n1), read-out: Primary assay EC50 GIP-R (n1)
[15] = cAMP assay, second determination (n2), read-out: Primary assay EC50 GIP-R (n2)

T3 sequence (P43220 24-463): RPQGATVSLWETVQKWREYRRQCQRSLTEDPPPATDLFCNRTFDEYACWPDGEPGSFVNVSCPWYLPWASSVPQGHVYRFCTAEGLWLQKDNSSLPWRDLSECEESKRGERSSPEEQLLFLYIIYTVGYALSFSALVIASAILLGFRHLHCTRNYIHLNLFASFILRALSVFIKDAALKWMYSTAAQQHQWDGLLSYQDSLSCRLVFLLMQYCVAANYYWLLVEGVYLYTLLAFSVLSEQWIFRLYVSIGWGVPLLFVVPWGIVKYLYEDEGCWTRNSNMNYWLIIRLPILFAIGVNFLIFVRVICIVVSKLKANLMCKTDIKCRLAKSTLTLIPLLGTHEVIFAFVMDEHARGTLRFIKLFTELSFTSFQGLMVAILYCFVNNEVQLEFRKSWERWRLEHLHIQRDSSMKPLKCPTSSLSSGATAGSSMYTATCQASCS
T1 sequence (P47871 26-477): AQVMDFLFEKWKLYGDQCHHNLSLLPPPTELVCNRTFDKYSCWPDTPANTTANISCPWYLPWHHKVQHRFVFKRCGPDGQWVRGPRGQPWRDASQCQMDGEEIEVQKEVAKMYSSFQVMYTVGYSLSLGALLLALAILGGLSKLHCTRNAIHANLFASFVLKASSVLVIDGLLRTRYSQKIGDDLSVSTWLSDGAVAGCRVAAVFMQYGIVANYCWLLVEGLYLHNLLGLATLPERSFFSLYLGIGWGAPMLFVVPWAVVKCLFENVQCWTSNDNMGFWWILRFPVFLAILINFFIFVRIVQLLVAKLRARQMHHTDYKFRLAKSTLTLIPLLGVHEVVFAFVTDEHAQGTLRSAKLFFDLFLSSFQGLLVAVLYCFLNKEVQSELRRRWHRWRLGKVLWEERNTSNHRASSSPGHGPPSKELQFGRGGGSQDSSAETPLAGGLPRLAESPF

EC50 [1, 4]	EC50 [2, 5]	EC50 [3, 6]	EC50 [3, 7]	EC50 [3, 8]	EC50 [3, 9]	EC50 [3, 10]	EC50 [3, 11]	EC50 [1, 12]	EC50 [1, 13]	EC50 [2, 14]	EC50 [2, 15]	Compound	further results
≥ 19.6 nM	≥ 19.6 nM	374 pM	277 pM	470 pM	–	–	–	–	–	–	–	CCCCCCCCCCCC(=O)N[C@@H](CCC(=O)NCCOCCOCC(=O)NCCOCCOCC(=O)NCCCC[C@H](NC(=O)[C@H](CCC(=O)O)NC(=O)[C@H](CC(C)C)NC(=O)[C@H](Cc1ccc(O)cc1)NC(=O)[C@H](CO)NC(=O)[C@H](CO)NC(=O)[C@H](CCCCNC(=O)COCCOCCNC(=O)COCCOCCNC(=O)CC[C@H](NC(=O)CCCCCCCCCCC)C(=O)O)NC(=O)[C@H](CC(=O)O)NC(=O)[C@H](CO)NC(=O)[C@@H](NC(=O)[C@](C)(Cc1ccccc1)NC(=O)[C@H](CO)NC(=O)CNC(=O)[C@H](CCC(=O)O)NC(=O)C(C)(C)NC(=O)[C@@H](N)Cc1c[nH]cn1)[C@@H](C)O)C(=O)N[C@@H](CCC(=O)O)C(=O)N[C@@H](C)C(=O)N[C@@H](C)C(=O)N[C@@](C)(CCCCN)C(=O)N[C@@H](CCC(=O)O)C(=O)N[C@@H](Cc1ccccc1)C(=O)N[C@H](C(=O)N[C@@H](C)C(=O)N[C@@H](Cc1ccccc1)C(=O)N[C@@H](CCCCNC(=O)COCCOCCNC(=O)COCCOCCNC(=O)CC[C@H](NC(=O)CCCCCCCCCCC)C(=O)O)C(=O)N[C@H](C(=O)N[C@@H](CCC(=O)O)C(=O)NCC(=O)NCC(N)=O)C(C)C)[C@@H](C)CC)C(=O)O [compound 471] (H-H[Aib]EGS[αMeF]TSDK([AEEA-AEEA-γGlu-Lauroyl])SSYLEK([AEEA-AEEA-γGlu-Lauroyl])EAA[αMeK]EFIAFK([AEEA-AEEA-γGlu-Lauroyl])VEGG-NH2)	–
19.7 nM	19.7 nM	246 pM	216 pM	276 pM	–	–	–	–	–	–	–	CCCCCCCCCCCC(=O)N[C@@H](CCC(=O)NCCOCCOCC(=O)NCCOCCOCC(=O)NCCCC[C@H](NC(=O)[C@H](CCC(=O)O)NC(=O)CNC(=O)[C@H](CCC(=O)O)NC(=O)[C@H](CC(C)C)NC(=O)[C@H](CCCCNC(=O)COCCOCCNC(=O)COCCOCCNC(=O)CC[C@H](NC(=O)CCCCCCCCCCC)C(=O)O)NC(=O)[C@H](CO)NC(=O)[C@](C)(CO)NC(=O)[C@@H](NC(=O)[C@H](CC(=O)O)NC(=O)[C@H](CO)NC(=O)[C@@H](NC(=O)[C@](C)(Cc1ccccc1)NC(=O)[C@H](CO)NC(=O)CNC(=O)[C@H](CCC(=O)O)NC(=O)C(C)(C)NC(=O)[C@@H](N)Cc1c[nH]cn1)[C@@H](C)O)C(C)C)C(=O)N[C@@H](C)C(=O)N[C@@](C)(CCCCN)C(=O)N[C@@H](CCC(=O)O)C(=O)N[C@@H](Cc1ccccc1)C(=O)N[C@H](C(=O)N[C@@H](CCCCNC(=O)COCCOCCNC(=O)COCCOCCNC(=O)CC[C@H](NC(=O)CCCCCCCCCCC)C(=O)O)C(=O)N[C@@H](Cc1ccccc1)C(=O)N[C@H](C(=O)N[C@H](C(=O)N[C@@H](CCC(=O)O)C(=O)NCC(=O)NCC(N)=O)C(C)C)C(C)C)[C@@H](C)CC)C(=O)O [compound 449] (H-H[Aib]EGS[αMeF]TSDV[αMeS]SK([AEEA-AEEA-γGlu-Lauroyl])LEGEK([AEEA-AEEA-γGlu-Lauroyl])A[αMeK]EFIK([AEEA-AEEA-γGlu-Lauroyl])FVVEGG-NH2; N-terminus assumed)	–
–	–	–	–	–	≥ 25000 pM	≥ 25100 pM	≥ 25100 pM	≥ 25 nM	≥ 25.1 nM	≥ 25 nM	≥ 25.1 nM	CC[C@H](C)[C@H](NC(=O)[C@](C)(Cc1ccccc1)NC(=O)[C@H](CCC(=O)O)NC(=O)[C@](C)(CCCCN)NC(=O)[C@H](C)NC(=O)[C@H](C)NC(=O)[C@H](CCC(=O)O)NC(=O)CNC(=O)[C@H](CCC(=O)O)NC(=O)[C@H](CC(C)C)NC(=O)[C@](C)(Cc1ccccc1)NC(=O)[C@H](CO)NC(=O)[C@](C)(CO)NC(=O)[C@@H](NC(=O)[C@H](CC(=O)O)NC(=O)[C@H](CO)NC(=O)[C@@H](NC(=O)[C@](C)(Cc1ccccc1)NC(=O)[C@H](CO)NC(=O)CNC(=O)[C@H](CCC(=O)O)NC(=O)[C@H](CCCCNC(=O)COCCOCCNC(=O)COCCOCCNC(=O)CC[C@H](NC(=O)CCCCCCCCCCCCCCCCC(=O)O)C(=O)O)NC(=O)[C@@H](N)Cc1c[nH]cn1)[C@@H](C)O)C(C)C)C(=O)N[C@@H](C)C(=O)N[C@@](C)(Cc1ccccc1)C(=O)N[C@H](C(=O)N[C@H](C(=O)N[C@@](C)(CCCCN)C(=O)NCC(=O)NCC(N)=O)C(C)C)C(C)C [compound 127]	–
–	–	–	–	–	≥ 28000 pM	≥ 28000 pM	≥ 27800 pM	≥ 28 nM	≥ 28 nM	≥ 28 nM	≥ 28 nM	CCCCCCCCCCCCCCCC(=O)N[C@@H](CCC(=O)NCCCC[C@H](NC(=O)C(C)(C)NC(=O)[C@@H](N)Cc1c[nH]cn1)C(=O)NCC(=O)N[C@@H](CO)C(=O)N[C@@](C)(Cc1ccccc1)C(=O)N[C@H](C(=O)N[C@@H](CO)C(=O)N[C@@H](CC(=O)O)C(=O)N[C@H](C(=O)N[C@@](C)(CO)C(=O)N[C@@H](CO)C(=O)N[C@@](C)(Cc1ccccc1)C(=O)N[C@@H](CC(C)C)C(=O)N[C@@H](CCC(=O)O)C(=O)NCC(=O)N[C@@H](CCC(=O)O)C(=O)N[C@@H](C)C(=O)N[C@@H](C)C(=O)N[C@@](C)(CCCCN)C(=O)N[C@@H](CCC(=O)O)C(=O)N[C@@](C)(Cc1ccccc1)C(=O)N[C@H](C(=O)N[C@@H](C)C(=O)N[C@@](C)(Cc1ccccc1)C(=O)N[C@H](C(=O)N[C@H](C(=O)N[C@@](C)(CCCCN)C(=O)NCC(=O)NCC(N)=O)C(C)C)C(C)C)[C@@H](C)CC)C(C)C)[C@@H](C)O)C(=O)O [compound 97] (H-H[Aib]K([γGlu-Palmitoyl])GS[αMeF]TSDV[αMeS]S[αMeF]LEGEAA[αMeK]E[αMeF]IA[αMeF]VV[αMeK]GG-NH2; N-terminus assumed)	–
–	–	80.9 pM	85.7 pM	76.1 pM	–	–	–	–	–	–	–	CCCCCCCCCCCC(=O)N[C@@H](CCC(=O)NCCOCCOCC(=O)NCCOCCOCC(=O)NCCCC[C@H](NC(=O)CNC(=O)[C@H](CCC(=O)O)NC(=O)[C@H](CCCCNC(=O)COCCOCCNC(=O)COCCOCCNC(=O)CC[C@H](NC(=O)CCCCCCCCCCC)C(=O)O)NC(=O)[C@H](Cc1ccc(O)cc1)NC(=O)[C@H](CO)NC(=O)[C@](C)(CO)NC(=O)[C@@H](NC(=O)[C@H](CC(=O)O)NC(=O)[C@H](CO)NC(=O)[C@@H](NC(=O)[C@](C)(Cc1ccccc1)NC(=O)[C@H](CO)NC(=O)CNC(=O)[C@H](CCC(=O)O)NC(=O)C(C)(C)NC(=O)[C@@H](N)Cc1c[nH]cn1)[C@@H](C)O)C(C)C)C(=O)N[C@@H](C)C(=O)N[C@@H](C)C(=O)N[C@@](C)(CCCCN)C(=O)N[C@@H](CCC(=O)O)C(=O)N[C@@H](Cc1ccccc1)C(=O)N[C@H](C(=O)N[C@@H](CCCCNC(=O)COCCOCCNC(=O)COCCOCCNC(=O)CC[C@H](NC(=O)CCCCCCCCCCC)C(=O)O)C(=O)N[C@@H](Cc1ccccc1)C(=O)N[C@H](C(=O)N[C@H](C(=O)N[C@@H](CCC(=O)O)C(=O)NCC(=O)NCC(N)=O)C(C)C)C(C)C)[C@@H](C)CC)C(=O)O [compound 452] (H-H[Aib]EGS[αMeF]TSDV[αMeS]SYK([AEEA-AEEA-γGlu-Lauroyl])EGK([AEEA-AEEA-γGlu-Lauroyl])AA[αMeK]EFIK([AEEA-AEEA-γGlu-Lauroyl])FVVEGG-NH2; N-terminus assumed)	EC50 ([1]; tris-lipidated peptides, second replicate, read-out: Primary assay EC50 Gluc-R (n2)): 19.7 nM; EC50 ([2]; tris-lipidated peptides, second replicate, read-out: Primary assay EC50 GIP-R (n2)): 19.7 nM

Compound	EC50 [1, 4]	EC50 [2, 5]	EC50 [3, 6]	EC50 [3, 7]	EC50 [3, 8]	EC50 [3, 9]	EC50 [3, 10]	EC50 [3, 11]	EC50 [1, 12]	EC50 [1, 13]	EC50 [2, 14]	EC50 [2, 15]	further results
CC[C@H](C)[C@H](NC(=O)[C@](C)(Cc1ccccc1)NC(=O)[C@H](CCC(=O)O)NC(=O)[C@H](CCCCNC(=O)COCCOCCNC(=O)COCCOCCNC(=O)CCCCCCCCCCCOc1ccc(C(=O)O)cc1)NC(=O)[C@H](C)NC(=O)[C@H](C)NC(=O)[C@H](CCC(=O)O)NC(=O)CNC(=O)[C@H](CCC(=O)O)NC(=O)[C@H](CC(C)C)NC(=O)[C@](C)(Cc1ccccc1)NC(=O)[C@H](CO)NC(=O)[C@](C)(CO)NC(=O)[C@@H](NC(=O)[C@H](CC(=O)O)NC(=O)[C@H](CO)NC(=O)[C@@H](NC(=O)[C@](C)(Cc1ccccc1)NC(=O)[C@H](CO)NC(=O)CNC(=O)[C@H](CCC(=O)O)NC(=O)C(C)(C)NC(=O)[C@@H](N)Cc1c[nH]cn1)[C@@H](C)O)C(C)C)C(=O)N[C@@H](C)C(=O)N[C@@](C)(Cc1ccccc1)C(=O)N[C@H](C(=O)N[C@H](C(=O)N[C@@](C)(CCCCN)C(=O)NCC(=O)NCC(N)=O)C(C)C)C(C)C [compound 144]	–	–	–	–	–	16 pM	9.6 pM	12.6 pM	–	–	–	–	EC50 ([1]; Primary assay EC50 Gluc-R (n1), cAMP assay, first determination (n1)): ≥ 26 nM; EC50 ([1]; read-out: Primary assay EC50 Gluc-R (n2), cAMP assay, second determination (n2)): ≥ 26 nM; EC50 ([2]; Primary assay EC50 GIP-R (n1), cAMP assay, first determination (n1)): ≥ 26 nM; EC50 ([2]; read-out: Primary assay EC50 GIP-R (n2), cAMP assay, second determination (n2)): ≥ 26 nM

Source: patent US10414811B2, “Protease-resistant lipidated GLP-1 analogs” (MEDIMMUNE LIMITED, priority 2015, dated 2019)
